The source of these data is US8748467B2, “Topical formulation” (Bayer Intellectual Property GmbH, priority 2007, dated 2014).

One data set has as its system total thyroxine (tT4). As to the kind of experiment: Total thyroxine (tT4) assays before and after each week's treatment (Example 1). Type of data set: in vivo. As to conditions: cats; twice daily for a week. An excerpt: At least a fortnight was allowed between treatments.
For data set [1] the following is noted: in vivo.
Experimental: They received standard oral carbimazole (Neomercazole, AFT Pharmaceuticals Ltd) tablets 5 mg administered twice daily for a week, followed by a test formulation of transdermal carbimazole (Test Formulation 1, Table 1, Example 2, below) 10 mg administered twice daily for a week, followed by Hoffman's (2002) transdermal formulation of carbimazole in poloxamer lecithin organogel (PLO), 10 mg administered twice daily for a week. At least a fortnight was allowed between treatments.
For data set [2] the following is noted: Hoffman et al, 2002; cited from earlier work.

`CCOC(=O)n1ccn(C)c1=S` [carbimazole]: the “tT4 concentrations over the seven days of the trial period” value in the data set on total thyroxine (tT4) was “approximately halved”. Moreover, the “plasma methimazole levels relative to the published therapeutic range” value in data set [1] is reported as “in the published therapeutic range”. In the case of `Cn1cc[nH]c1=S` [methimazole], the “published plasma levels with methimazole” value in data set [2] is 0.51 ± 0.15 µg/mL.
